Here are results for 7 compounds from ChEMBL document CHEMBL4002588, “2,4-Disubstituted quinazolines as amyloid-β aggregation inhibitors with dual cholinesterase inhibition and antioxidant properties: Development and structure-activity relationship (SAR) studies” (Eur J Med Chem, 2017).

Calls of active or inactive are those of the source. No cut-off for these calls is given here.

The target of test [1] is T1, Amyloid-beta precursor protein (Homo sapiens, UniProt P05067). In words: Inhibition of HFIP-induced human recombinant amyloid beta (1 to 40 residues) aggregation expressed in Escherichia coli at 25 uM measured over 24 hrs by ThT-based fluorescence spectroscopic method relative to control.
T1 sequence (P05067 whole entry, the tested form may be a part): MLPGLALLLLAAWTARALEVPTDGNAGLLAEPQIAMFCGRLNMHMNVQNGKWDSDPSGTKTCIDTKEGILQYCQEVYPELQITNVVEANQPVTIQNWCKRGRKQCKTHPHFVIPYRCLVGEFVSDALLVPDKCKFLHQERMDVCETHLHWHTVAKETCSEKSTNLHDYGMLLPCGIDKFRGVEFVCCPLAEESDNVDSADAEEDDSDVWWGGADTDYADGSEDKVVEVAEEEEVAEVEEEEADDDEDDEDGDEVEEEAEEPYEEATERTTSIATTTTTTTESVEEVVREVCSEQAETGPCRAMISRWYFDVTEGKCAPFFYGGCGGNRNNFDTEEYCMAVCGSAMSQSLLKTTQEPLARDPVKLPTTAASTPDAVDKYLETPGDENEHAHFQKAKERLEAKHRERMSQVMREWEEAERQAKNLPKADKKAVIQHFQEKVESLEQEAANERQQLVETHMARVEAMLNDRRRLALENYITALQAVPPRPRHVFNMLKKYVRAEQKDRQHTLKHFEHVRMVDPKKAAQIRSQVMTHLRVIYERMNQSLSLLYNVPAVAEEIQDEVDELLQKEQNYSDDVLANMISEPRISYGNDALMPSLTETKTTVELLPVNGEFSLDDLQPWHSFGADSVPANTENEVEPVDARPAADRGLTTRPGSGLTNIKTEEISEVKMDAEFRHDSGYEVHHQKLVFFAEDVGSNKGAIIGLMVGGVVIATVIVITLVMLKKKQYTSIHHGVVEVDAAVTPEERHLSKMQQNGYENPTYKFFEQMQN
Test [2] deals with T1, Amyloid-beta precursor protein. In words: Inhibition of HFIP-induced human recombinant amyloid beta (1 to 42 residues) aggregation expressed in Escherichia coli at 25 uM measured over 24 hrs by ThT-based fluorescence spectroscopic method relative to control.
In test [3] the target is T2, Cholinesterase (Homo sapiens, UniProt P06276).
T2 sequence (P06276 whole entry): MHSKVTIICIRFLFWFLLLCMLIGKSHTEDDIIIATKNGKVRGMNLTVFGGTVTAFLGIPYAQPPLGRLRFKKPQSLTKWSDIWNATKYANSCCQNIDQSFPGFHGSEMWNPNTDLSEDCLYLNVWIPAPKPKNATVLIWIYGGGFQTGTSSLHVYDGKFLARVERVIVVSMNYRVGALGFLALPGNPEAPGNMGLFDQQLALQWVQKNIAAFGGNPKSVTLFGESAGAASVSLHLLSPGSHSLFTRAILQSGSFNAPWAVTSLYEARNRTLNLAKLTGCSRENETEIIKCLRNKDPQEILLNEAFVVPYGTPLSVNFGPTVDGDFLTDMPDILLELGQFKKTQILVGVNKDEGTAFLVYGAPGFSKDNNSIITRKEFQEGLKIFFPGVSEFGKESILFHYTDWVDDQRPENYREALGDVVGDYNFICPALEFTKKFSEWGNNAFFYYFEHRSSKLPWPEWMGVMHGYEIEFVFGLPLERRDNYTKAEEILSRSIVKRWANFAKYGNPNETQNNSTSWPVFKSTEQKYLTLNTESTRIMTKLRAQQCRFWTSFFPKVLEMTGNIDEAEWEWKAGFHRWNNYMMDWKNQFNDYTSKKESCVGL
Description: Inhibition of human BuChE using S-butyrylthiocholine iodide as substrate preincubated for 5 mins followed by substrate addition measured for 60 to 300 secs by Ellman's method
In test [4] the target is T1, Amyloid-beta precursor protein.
Description: Inhibition of HFIP-induced human recombinant amyloid beta (1 to 40 residues) aggregation expressed in Escherichia coli measured over 24 hrs by ThT-based fluorescence spectroscopic method
In a further test the target is Acetylcholinesterase (Homo sapiens, UniProt P22303).
Sequence of Acetylcholinesterase (P22303 whole entry): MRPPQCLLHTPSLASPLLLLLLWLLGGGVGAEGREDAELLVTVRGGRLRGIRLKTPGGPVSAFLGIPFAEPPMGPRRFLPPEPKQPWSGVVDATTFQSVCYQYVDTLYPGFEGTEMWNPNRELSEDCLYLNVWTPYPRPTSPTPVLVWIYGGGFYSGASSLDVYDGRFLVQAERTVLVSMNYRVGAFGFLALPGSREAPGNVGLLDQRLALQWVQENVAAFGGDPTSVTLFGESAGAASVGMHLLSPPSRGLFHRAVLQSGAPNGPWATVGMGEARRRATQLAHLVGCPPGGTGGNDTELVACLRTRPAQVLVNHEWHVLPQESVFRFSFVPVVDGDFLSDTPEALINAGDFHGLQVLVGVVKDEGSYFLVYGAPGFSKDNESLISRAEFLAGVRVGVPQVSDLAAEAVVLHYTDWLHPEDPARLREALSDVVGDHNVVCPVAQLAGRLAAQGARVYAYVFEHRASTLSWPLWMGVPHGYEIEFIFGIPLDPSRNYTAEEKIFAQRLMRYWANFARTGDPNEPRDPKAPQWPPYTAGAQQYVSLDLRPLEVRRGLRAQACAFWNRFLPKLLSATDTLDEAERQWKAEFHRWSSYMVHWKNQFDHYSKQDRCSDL
Test [5] has as its target T2, Cholinesterase. In words: Potency index, ratio of donepezil IC50 to test compound IC50 for human BuChE.
Test [6] addresses T1, Amyloid-beta precursor protein. In words: Inhibition of HFIP-induced human recombinant amyloid beta (1 to 40 residues) aggregation expressed in Escherichia coli assessed as reduction in amyloid beta fibril load measured after 24 hrs by ThT fluorescence assay.
The target is the same in test [7]. In words: Inhibition of HFIP-induced human recombinant amyloid beta (1 to 40 residues) aggregation expressed in Escherichia coli assessed as reduction in amyloid beta fibril load at 25 uM after 24 hrs by transmission electron microscopic method.
The target is the same in test [8]. In words: Potency index, ratio of curcumin IC50 to test compound IC50 for HFIP-induced human recombinant amyloid beta (1 to 40 residues) aggregation.
For test [9] the target is unchanged. In words: Inhibition of HFIP-induced human recombinant amyloid beta (1 to 42 residues) aggregation expressed in Escherichia coli assessed as reduction in amyloid beta fibril load at 25 uM after 24 hrs by transmission electron microscopic method.
The target is the same in test [10]. In words: Inhibition of HFIP-induced human recombinant amyloid beta (1 to 42 residues) aggregation expressed in Escherichia coli assessed as reduction in amyloid beta fibril load measured after 24 hrs by ThT fluorescence assay.
The target is the same in test [11]. The source holds these as a separate data set.
Description: Inhibition of HFIP-induced human recombinant amyloid beta (1 to 42 residues) aggregation expressed in Escherichia coli measured over 24 hrs by ThT-based fluorescence spectroscopic method
For test [12] the target is unchanged. In words: Potency index, ratio of resveratrol IC50 to test compound IC50 for HFIP-induced human recombinant amyloid beta (1 to 42 residues) aggregation.
Test [13] shares this target. In words: Potency index, ratio of curcumin IC50 to test compound IC50 for HFIP-induced human recombinant amyloid beta (1 to 42 residues) aggregation.
A short description of test [14]: Antioxidant activity assessed as DPPH radical scavenging activity at 50 uM relative to control. It counts as functional. A general note: The DPPH test is a chemical assay of radical scavenging.
The nature of test [15]: Potency index, ratio of test compound to resveratrol antioxidant activity assessed as DPPH radical scavenging activity.

Description for Acetylcholinesterase: Inhibition of human AChE using acetylthiocholine iodide as substrate preincubated for 5 mins followed by substrate addition measured for 60 to 300 secs by Ellman's method

In the case of `CC(C)Nc1nc(NCCc2ccccc2)c2ccccc2n1`, in test [1], the inhibition is greater than 50%. In addition, the inhibition result in test [2] is “inactive”. Further, the values for the IC50 (against Cholinesterase [3]; in [4]; against Acetylcholinesterase) were 1.6 µM, 3.8 µM and 7.2 µM, respectively. On Cholinesterase [5], the Ratio IC50 was determined as 2.3.
On to `c1ccc(CCNc2nc(NC3CC3)nc3ccccc23)cc1`, for which the inhibition in test [1] is greater than 50%; in [2], 22%; in test [6], “Dose-dependent effect”. Besides, the IC50 against Cholinesterase [3] is 11.4 µM; in test [4], 0.79 µM; against Acetylcholinesterase, 8.6 µM. In addition, in [7], the inhibition result is “Active”. Moreover, the Ratio IC50 in [8] worked out at 4.1.
As to `COc1ccc(CCNc2nc(Cl)nc3ccccc23)cc1OC`, the inhibition in test [1] is greater than 50%; in test [10] it was “Dose-dependent effect”. For the same compound, in [9], the inhibition entry was “Active”. In addition, the IC50 in test [11] turned out to be 13 µM; in test [4], 8.2 µM.
Turning to `Nc1nc(NCc2ccccc2)nc2ccccc12`, the inhibition in test [1] is greater than 50%; in test [10] it was “Dose-dependent effect”. Further, in test [9], the inhibition entry is “Active”. Further, the Ratio IC50 was 1.8 in [12] and 1.2 to 1.4 in test [8].
Consider `Nc1nc(NCCc2ccccc2)nc2ccccc12`, for which the inhibition in test [1] is greater than 50%; in [2], 50%; in test [10], “Dose-dependent effect”. Further, the inhibition entry in test [9] is “Active”. Moreover, the Ratio IC50 on Cholinesterase [5] turned out to be 1.5.
In the case of `Oc1nc(NCc2ccccc2)c2ccccc2n1`, the results for the inhibition in test [1], in test [2] and in test [6] were greater than 50%, 24% and “Dose-dependent effect”, respectively. Further, in test [4], the IC50 amounted to 0.27 µM. The Ratio IC50 in test [12] was found to be 4; in test [13], 12. The inhibition entry in test [7] is “Active”. For the same compound, the Activity in test [14] amounted to 47%.
For the compound `COc1ccc(CNc2nc(O)nc3ccccc23)cc1OC`, the results for the inhibition in test [1] and in [2] were greater than 50% and less than 10%, respectively. Also, in test [15], the Ratio amounted to 1.5. In test [4], this compound had an IC50 of 7.8 µM. Further, the Activity in [14] turned out to be 63.4%.

What is called inhibition is the change of the read-out against control, counted positive when it falls. In general, IC50 refers to the concentration at which inhibition is half-maximal. Read a low IC50 as greater potency in that assay.
